The assay deals with Kappa-type opioid receptor (Homo sapiens, UniProt P41145). In words: Displacement of [3H]-U69593 from human kappa opioid receptor expressed in U2OS cells by radioligand binding assay. (Loss of bound radioactivity is the signal in a displacement assay; it reports binding, not function.)

What is called Ki is a dissociation constant, usually derived from enzyme kinetics or from competition with a known ligand. Lower therefore signals tighter binding.

Sequence of Kappa-type opioid receptor (P41145 whole entry): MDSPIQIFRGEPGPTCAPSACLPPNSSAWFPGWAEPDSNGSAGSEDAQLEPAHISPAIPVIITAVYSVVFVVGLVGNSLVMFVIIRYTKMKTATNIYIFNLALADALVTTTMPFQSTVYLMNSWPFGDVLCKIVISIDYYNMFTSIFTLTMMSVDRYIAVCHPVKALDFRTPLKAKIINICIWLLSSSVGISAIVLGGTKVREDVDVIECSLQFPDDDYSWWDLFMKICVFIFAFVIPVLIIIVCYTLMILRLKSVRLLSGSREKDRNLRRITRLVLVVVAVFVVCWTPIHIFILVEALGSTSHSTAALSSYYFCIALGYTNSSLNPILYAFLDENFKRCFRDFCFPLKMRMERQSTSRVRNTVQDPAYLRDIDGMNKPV

Molecule `C/C=C1/CN2CC[C@@]34C(=Nc5ccccc53)C(C(=O)OC)[C@H]1C[C@H]24` (stereo partly specified) had an inhibitory constant (Ki) of 89 nM.
